US20170202932A1, “METHODS FOR INHIBITING NEURON APOPTOSIS AND NECROSIS” (NEWSOUTH INNOVATIONS PTY LIMITED, priority 2012, published 2017)

Target: T1, recombinant mouse TRPC3b channels (Mus musculus, UniProt Q9QZC1, R524G)
T1 construct: Full length mouse TRPC3 transcripts were obtained by PCR; expressed in transfected cells; host or cells: HEK293 cells stably expressing TRPC3b, additionally transfected with mGluR1-eYFP cDNA
T1 sequence (Q9QZC1 75-910 R524G): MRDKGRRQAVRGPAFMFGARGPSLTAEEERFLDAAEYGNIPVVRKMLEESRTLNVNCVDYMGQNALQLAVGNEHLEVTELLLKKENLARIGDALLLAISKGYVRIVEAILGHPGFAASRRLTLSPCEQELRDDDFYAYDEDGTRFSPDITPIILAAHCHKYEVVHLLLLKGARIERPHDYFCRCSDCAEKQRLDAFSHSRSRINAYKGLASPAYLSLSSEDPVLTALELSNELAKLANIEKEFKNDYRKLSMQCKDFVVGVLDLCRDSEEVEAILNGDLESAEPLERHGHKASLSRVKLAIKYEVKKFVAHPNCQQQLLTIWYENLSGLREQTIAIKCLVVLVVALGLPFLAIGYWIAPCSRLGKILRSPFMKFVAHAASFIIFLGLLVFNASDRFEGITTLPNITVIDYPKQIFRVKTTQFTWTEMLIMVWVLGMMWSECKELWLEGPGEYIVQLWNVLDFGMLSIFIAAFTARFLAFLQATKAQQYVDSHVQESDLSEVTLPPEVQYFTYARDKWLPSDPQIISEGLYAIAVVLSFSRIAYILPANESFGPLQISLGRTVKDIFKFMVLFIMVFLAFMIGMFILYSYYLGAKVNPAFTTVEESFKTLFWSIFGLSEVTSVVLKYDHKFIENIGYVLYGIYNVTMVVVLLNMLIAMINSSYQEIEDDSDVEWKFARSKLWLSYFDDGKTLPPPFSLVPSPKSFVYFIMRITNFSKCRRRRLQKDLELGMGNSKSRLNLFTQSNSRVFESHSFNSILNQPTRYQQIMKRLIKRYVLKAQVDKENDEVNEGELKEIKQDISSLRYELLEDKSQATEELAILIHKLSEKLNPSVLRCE
Test: Fluo-4 Ca2+ imaging of DHPG-activated Ca2+ entry, HEK293 cells co-expressing TRPC3b and mGluR1
Type: cell-based
Details: genistein 200 μM pre-application, n=6, without genistein 1.56±0.0713
Protocol: The TRPC3-mediated Ca^2+ entry through two distinct activation pathways was assessed by microfluorometric Ca^2+ imaging: i) Ca^2+ entry via the M3 receptor-PLCB-DAG pathway endogenous to HEK293 cells, using Indo-1 as a Ca^2+ indicator; and ii) Ca^2+ entry via mGluR1-PLCB-DAG through co-expression of the mGluR1, using Fluo-4 as a Ca^2+ indicator.
Cells were grown in DMEM media on 18 mm circular coverslips coated with poly-D-lysine (25 μg/ml) and collagen (25 μg/ml) at 1:1 ratio. The cells were washed with HPSS. The coverslips were then incubated with HPSS and 0.1% pluronic acid, along with either 1 μM Indo-1AM or Fluo-4AM Ca^2+ indicator (Invitrogen, U.S.A.) for an hour prior to the experiment. […]
For Fluo-4 experiments, the cells were mounted on an inverted microscope (DMIL, Leica) with a 20× 0.4NA objective (Leica HCX PL Fluotar), and illuminated with a mercury lamp using a GFP filter (part no. 11504164; excitation 470/40 nm, dichroic 500 nm, emission 525/50 nm) every 5 seconds (Andor iXon+ 885 EMCCD Camera, Ireland) with a gated shutter (Ludl Electronic Products, U.S.A.), controlled via Andor IQ (v1.8.1) software. The images were then analysed using Image J software (NIH, U.S.A.) with individual regions of interest (ROIs) identified for HEK293 cells responding to M3 or mGluR1 agonists with increased Ca^2+ signal. […]

Fluo-4 fluorescence F/F0 (TRPC3-mediated Ca2+ entry after DHPG): 1.031±0.0144
Compound: O=c1c(-c2ccc(O)cc2)coc2cc(O)cc(O)c12 [genistein, 4′, 5,7-trihydroxyisoflavone]
